Assay results: PubChem BioAssay AID1963966 (Molecular Pharmacology Branch, DTP, NCI, 2024)

Test system: 935938-334-R-J1-PDC spheroids with HUVEC/MSC, viability
Assay: Anticancer human tumor 935938-334-R-J1-PDC patient-derived small intestine adenocarcinoma cell line growth inhibition [PI3K]
Details: for IC50: curve of first compound; for viability, T/C: stronger effect = lower value
Excerpt: Combinatorial screen of targeted agents with the PI3K inhibitors inavolisib, alpelisib, duvelisib, and copanlisib in multi-cell type tumor spheroids
A high-throughput screen of multi-cell type tumor spheroids was designed to identify active combinations of targeted small molecules and PI3K pathway inhibitors. Complex spheroids include a stromal component modeled by human endothelial cells (HUVEC) and fibroblasts modeled by human mesenchymal stem cells (MSCs). The concentration ranges selected for each drug and investigational agent were based upon clinically achievable concentrations if the clinical Cmax of the agent was known.
Compounds. The drugs and investigational agents: inavolisib (NSC800729), alpelisib (NSC765974), duvelisib (NSC772469), copanlisib (NSC816437), ipatasertib (NSC767898), afuresertib (NSC778305), talazoparib (NSC767125), sapanisertib (NSC764658), selumetinib (NSC741078), tovorafenib (DAY101, NSC766906), vemurafenib (NSC761431), ravoxertinib (NSC781343), sotorasib (NSC818433), MRTX1133 (NSC 836407), abemaciclib (NSC 768073), palbociclib (NSC758247), venetoclax (NSC 766270), SY5609 (NSC837396), enzalutamide (NSC755605), and darolutamide (NSC825331), were obtained from the National Cancer Institute (NCI) Developmental Therapeutics Program Chemical Repository. The FDA-approved anticancer drug set is available from the NCI Developmental Therapeutics Program. […] The stock solutions were prepared in dimethyl sulfoxide (DMSO, Sigma-Aldrich, St. Louis, MO, cat. D2650) at 800-fold the tested concentration and stored at -70 degrees C prior to their use. All drugs and investigational agents were tested over a range starting from a high concentration at or near the clinical Cmax and decreasing in half-log increments. If the clinical Cmax for an agent had not been determined, the highest concentration tested was 10 microM.
Cell Culture. All cells were maintained in an incubator at 37 degrees C and 5% CO2 with 95% humidity. The PDC lines were cultured according to standard operating procedures established by the NCI PDMR (https://pdmr.cancer.gov/sops/default.htm). All PDCs were thawed and cultured in Matrigel-coated flasks prepared with a working solution of 1X Ham's F-12 nutrient mix, without supplementation (Invitrogen, Waltham, MA, cat. 11765054), 100 U/mL penicillin-streptomycin (Invitrogen, cat. 15140122), and 2.5% Matrigel (Corning Inc., Corning, NY, cat. 354248) for the first three passages. The 354836-022-R-J1-PDC, 475296-252-R-J1-PDC, and 997726-040-R-J2-PDC lines were cultured in 6A media, which includes advanced DMEM/F-12 (Thermo Fisher Scientific, cat. 12634028), 10 mM HEPES (Thermo Fisher Scientific, cat. 15630080), 1X GlutaMAX supplement (Thermo Fisher Scientific, cat. 35050061), 0.1 mg/mL primocin (InvivoGen, San Diego, CA, cat. ant-pm-2), 10% defined fetal bovine serum, heat inactivated (HyClone Laboratories Inc., Logan, UT, cat. SH30070.03HI), 50% L-WRN conditioned media (ATCC, cat. CRL-3276), 1.25 mM N-Acetyl-L-cysteine (Sigma-Aldrich, cat. A9165), 10 mM nicotinamide (Sigma-Aldrich, cat. N0636), 1X B-27 supplement (Thermo Fisher Scientific, cat. 17504044), 1X N-2 supplement (Thermo Fisher Scientific, cat. 17502048), and 10 microM Y-27632 dihydrochloride (Tocris Bioscience, Bristol, United Kingdom, cat. 1254). The 624824-186-R-J2-PDC line was cultured in 6C/Colon 1B media, which includes all 6A media components plus 50 ng/mL human EGF recombinant protein (Thermo Fisher Scientific, cat. PHG0311). […]

[1] = second compound 0.00316 µM, first compound 0.0316 µM
[2] = second compound 0.00316 µM, first compound 0.1 µM
[3] = second compound 0.00316 µM, first compound 0.316 µM
[4] = second compound 0.00316 µM, first compound 1 µM
[5] = second compound 0.00316 µM, first compound 3.16 µM
[6] = second compound 0.00316 µM, first compound 10 µM
[7] = second compound 0.01 µM, first compound 0.0316 µM
[8] = second compound 0.01 µM, first compound 0.1 µM
[9] = second compound 0.01 µM, first compound 0.316 µM
[10] = second compound 0.01 µM, first compound 1 µM
[11] = second compound 0.01 µM, first compound 3.16 µM
[12] = second compound 0.01 µM, first compound 10 µM
[13] = second compound 0.0316 µM, first compound 0.0316 µM
[14] = second compound 0.0316 µM, first compound 0.1 µM
[15] = second compound 0.0316 µM, first compound 0.316 µM
[16] = second compound 0.0316 µM, first compound 1 µM
[17] = second compound 0.0316 µM, first compound 3.16 µM
[18] = second compound 0.0316 µM, first compound 10 µM
[19] = second compound 0.1 µM, first compound 0.0316 µM
[20] = second compound 0.1 µM, first compound 0.1 µM
[21] = second compound 0.1 µM, first compound 0.316 µM
[22] = second compound 0.1 µM, first compound 1 µM
[23] = second compound 0.1 µM, first compound 3.16 µM
[24] = second compound 0.1 µM, first compound 10 µM
[25] = second compound 0.316 µM, first compound 0.0316 µM
[26] = second compound 0.316 µM, first compound 0.1 µM
[27] = second compound 0.316 µM, first compound 0.316 µM
[28] = second compound 0.316 µM, first compound 1 µM
[29] = second compound 0.316 µM, first compound 3.16 µM
[30] = second compound 0.316 µM, first compound 10 µM
[31] = second compound 1 µM, first compound 0.0316 µM
[32] = second compound 1 µM, first compound 0.1 µM
[33] = second compound 1 µM, first compound 0.316 µM
[34] = second compound 1 µM, first compound 1 µM
[35] = second compound 1 µM, first compound 3.16 µM
[36] = second compound 1 µM, first compound 10 µM
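Note: compound exposure lasted seven days before viability was read.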
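Throughout, for viability, T/C: percent of vehicle DMSO treated spheroid viability so 100% = untreated.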

SMILES: CC(C)NCC(C(=O)N1CCN(c2ncnc3c2C(C)CC3O)CC1)c1ccc(Cl)cc1 (stereo unspecified) + CC(Nc1ccc2c(c1)OCCn1cc(N3C(=O)OCC3C(F)F)nc1-2)C(N)=O
- IC50 (second compound 0.00316 µM): 1.69 µM
- IC50 (second compound 0.01 µM): 3.32 µM
- IC50 (second compound 0.0316 µM): 0.811 µM
- IC50 (second compound 0.1 µM): 0.651 µM
- IC50 (second compound 0.316 µM): 0.724 µM
- IC50 (second compound 1 µM): 0.328 µM
- viability, T/C [1]: 76.6%
- viability, T/C [2]: 96.7%
- viability, T/C [3]: 77.9%
- viability, T/C [4]: 58%
- viability, T/C [5]: 41.5%
- viability, T/C [6]: 36.1%
- viability, T/C [7]: 47.5%
- viability, T/C [8]: 75.7%
- viability, T/C [9]: 85%
- viability, T/C [10]: 65.4%
- viability, T/C [11]: 51.1%
- viability, T/C [12]: 28.6%
- viability, T/C [13]: 53.1%
- viability, T/C [14]: 76.5%
- viability, T/C [15]: 65.5%
- viability, T/C [16]: 46.5%
- viability, T/C [17]: 35.3%
- viability, T/C [18]: 30%
- viability, T/C [19]: 94.9%
- viability, T/C [20]: 84.1%
- viability, T/C [21]: 56.1%
- viability, T/C [22]: 44%
- viability, T/C [23]: 44%
- viability, T/C [24]: 28.3%
- viability, T/C [25]: 55.5%
- viability, T/C [26]: 75.7%
- viability, T/C [27]: 68.3%
- viability, T/C [28]: 43.6%
- viability, T/C [29]: 23.4%
- viability, T/C [30]: 24.8%
- viability, T/C [31]: 35.1%
- viability, T/C [32]: 52.9%
- viability, T/C [33]: 63.5%
- viability, T/C [34]: 34.1%
- viability, T/C [35]: 19.8%
- viability, T/C [36]: 28.6%

SMILES: CCN1CCN(Cc2ccc(Nc3ncc(F)c(-c4cc(F)c5nc(C)n(C(C)C)c5c4)n3)nc2)CC1 + CC(Nc1ccc2c(c1)OCCn1cc(N3C(=O)OCC3C(F)F)nc1-2)C(N)=O
- IC50 (second compound 0.00316 µM): 0.126 µM
- IC50 (second compound 0.01 µM): 0.168 µM
- IC50 (second compound 0.0316 µM): 0.0463 µM
- IC50 (second compound 0.1 µM): < 0.00316 µM
- IC50 (second compound 0.316 µM): 0.0323 µM
- IC50 (second compound 1 µM): < 0.00316 µM
- viability, T/C (second compound 0.00316 µM, first compound 0.00316 µM): 60.1%
- viability, T/C (second compound 0.00316 µM, first compound 0.01 µM): 67.3%
- viability, T/C [1]: 66%
- viability, T/C [2]: 49.8%
- viability, T/C [3]: 37.6%
- viability, T/C [4]: 18.1%
- viability, T/C (second compound 0.01 µM, first compound 0.00316 µM): 59.6%
- viability, T/C (second compound 0.01 µM, first compound 0.01 µM): 58%
- viability, T/C [7]: 65%
- viability, T/C [8]: 64.4%
- viability, T/C [9]: 35.6%
- viability, T/C [10]: 15.5%
- viability, T/C (second compound 0.0316 µM, first compound 0.00316 µM): 83.7%
- viability, T/C (second compound 0.0316 µM, first compound 0.01 µM): 68.3%
- viability, T/C [13]: 56.8%
- viability, T/C [14]: 39%
- viability, T/C [15]: 28.8%
- viability, T/C [16]: 19.6%
- viability, T/C (second compound 0.1 µM, first compound 0.00316 µM): 42.6%
- viability, T/C (second compound 0.1 µM, first compound 0.01 µM): 55.9%
- viability, T/C [19]: 51.3%
- viability, T/C [20]: 45.1%
- viability, T/C [21]: 28.9%
- viability, T/C [22]: 16.2%
- viability, T/C (second compound 0.316 µM, first compound 0.00316 µM): 43%
- viability, T/C (second compound 0.316 µM, first compound 0.01 µM): 51.5%
- viability, T/C [25]: 56%
- viability, T/C [26]: 26.8%
- viability, T/C [27]: 23.3%
- viability, T/C [28]: 14.7%
- viability, T/C (second compound 1 µM, first compound 0.00316 µM): 44.3%
- viability, T/C (second compound 1 µM, first compound 0.01 µM): 38%
- viability, T/C [31]: 50.3%
- viability, T/C [32]: 25.4%
- viability, T/C [33]: 22.3%
- viability, T/C [34]: 20.6%

SMILES: Cn1ncc(Cl)c1-c1cc(C(=O)NC(CN)Cc2cccc(F)c2)sc1Cl (stereo unspecified) + CC(Nc1ccc2c(c1)OCCn1cc(N3C(=O)OCC3C(F)F)nc1-2)C(N)=O
- IC50 (second compound 0.00316 µM): > 10 µM
- IC50 (second compound 0.01 µM): > 10 µM
- IC50 (second compound 0.0316 µM): > 10 µM
- IC50 (second compound 0.1 µM): 0.761 µM
- IC50 (second compound 0.316 µM): 0.261 µM
- IC50 (second compound 1 µM): < 0.0316 µM
- viability, T/C [1]: 107%
- viability, T/C [2]: 69%
- viability, T/C [3]: 60.8%
- viability, T/C [4]: 57.9%
- viability, T/C [5]: 56.5%
- viability, T/C [6]: 116%
- viability, T/C [7]: 104%
- viability, T/C [8]: 79.4%
- viability, T/C [9]: 53%
- viability, T/C [10]: 72.8%
- viability, T/C [11]: 40.9%
- viability, T/C [12]: 99.8%
- viability, T/C [13]: 102%
- viability, T/C [14]: 73.2%
- viability, T/C [15]: 56.7%
- viability, T/C [16]: 49.2%
- viability, T/C [17]: 35.9%
- viability, T/C [18]: 86%
- viability, T/C [19]: 80.6%
- viability, T/C [20]: 74.7%
- viability, T/C [21]: 55.5%
- viability, T/C [22]: 39.1%
- viability, T/C [23]: 32.5%
- viability, T/C [24]: 72.8%
- viability, T/C [25]: 70.9%
- viability, T/C [26]: 65.5%
- viability, T/C [27]: 47.1%
- viability, T/C [28]: 41%
- viability, T/C [29]: 28.1%
- viability, T/C [30]: 55.7%
- viability, T/C [31]: 56.7%
- viability, T/C [32]: 51.1%
- viability, T/C [33]: 43.3%
- viability, T/C [34]: 31.4%
- viability, T/C [35]: 39%
- viability, T/C [36]: 72.4%
